Assay results as given in patent US10669287B2, “Curcumin-boron complex and pharmaceutical containing same” (JAPAN SCIENCE AND TECHNOLOGY AGENCY, priority 2016, dated 2020).
Read-outs that look alike come from different tables or passages of the source.

Key:
Aβ1-42 [1] = molecular target: T1, Aβ1-42 (Homo sapiens, UniProt P05067); test: Oxygenation under mouse skin, Test Example 7; type: in vivo; details: microtube with Aβ1-42 20 μM aggregated 3 hours, implanted in back skin, LED 780 nm, 30 minutes
T1 construct: phosphate buffer (pH 7.4)/cell culture solution (containing 0.1% horse serum) (1:3) containing Aβ1-42 (10 μM)
Protocol: A microtube containing a phosphate buffer containing Aβ1-42 (20 μM, aggregated in advance for 3 hours) and the compound E or a compound 3 [9-(6-bromo-3-methyl-1,3-benzotriazol-3-ium-2-yl)-julolidine] was implanted in the back skin of a wild mouse, and light irradiation with an LED lamp was performed from the outside of the mouse body at a wavelength of 780 nm for 30 minutes (FIG. 10). As a control experiment, another microtube containing the same components (Aβ1-42 (20 μM, aggregated in advance for 3 hours) and the compound E or the compound 3) was directly subjected to light irradiation outside of the mouse body. The reaction mixture was analyzed by using a MALDI-TOF MS, and then subjected to ZipTip treatment for analysis. The percentage of oxygenation ratio was calculated from the percentage of oxygenation ratio under the skin and the oxygenation ratio outside of the skin “[oxygenation ratio under mouse skin/oxygenation ratio outside of mouse skin]×100”.

[2] = Conversion of furfuryl alcohol under different glycerol concentrations, Test Example 8; details: compound 2 μM, furfuryl alcohol 2 mM, glycerol-methanol 0, 10, 30, or 50% glycerol, 780 nm, room temperature
Protocol: (§1) To a glycerol-methanol mixed solvent (glycerol: 0, 10, 30, or 50%), furfuryl alcohol or N-benzoyl-Met (2 mM in each case) and the compound E (2 μM) were added, and the mixture was subjected to light irradiation (wavelength: 780 nm) at room temperature, and the concentration of furfuryl alcohol or N-benzoyl-Met was quantified by using a UV absorptiometer with LC/MS 10 minutes, 20 minutes, and 30 minutes after the initiation of light irradiation.

[3] = Conversion of N-benzoyl-Met under different glycerol concentrations, Test Example 8; details: compound 2 μM, N-benzoyl-Met 2 mM, glycerol-methanol 0, 10, 30, or 50% glycerol, 780 nm, room temperature
Protocol: as §1

Aβ1-42 [4] = molecular target: T1, Aβ1-42; test: In vitro oxygenation experiment using Aβ1-42 as a substrate (MALDI-TOF MS), Test Example 1; type: biochemical; details: test compound 1 μM, Aβ1-42 10 μM, LED irradiation at both 660 nm and 730 nm, 37° C.
Protocol: An in vitro oxygenation experiment using Aβ1-42 as a substrate was conducted to confirm that each of the inventive compounds actually have Aβ oxygenation activity. A test compound (1 μM in each case) was added to phosphate buffer (pH 7.4)/cell culture solution (containing 0.1% horse serum) (1:3) containing Aβ1-42 (10 μM), and incubated under LED irradiation (wavelength: 660 nm, 730 nm) at 37° C., and then the reaction was tracked by using a mass spectrometer (MALDI-TOF MS). The native Aβ1-42 and the Na^+ adduct were mainly observed before light irradiation. After light irradiation, an ion peak indicating the presence of the oxygenated form was observed over time (FIG. 1, FIG. 2).

PC 12 cells = type: cell-based
Protocol: Rat pheochromocytoma PC 12 cells were suspended with DMEM containing 5% horse serum and 10% fetal bovine serum, seeded in a poly-D-lysine-coated 96-well plate at a concentration of 10,000 cells per well, and incubated in a 5% carbon dioxide atmosphere at 37° C. for 3 days. After the solvent was removed, the cells were washed with 150 μL of serum-free DMEM, and DMEM (75 μL) containing 0.1% horse serum was added thereto. Thereafter, the 96-well plate was incubated in a 5% carbon dioxide atmosphere at 37° C. for 1 day for use in oxygenation reaction. In oxygenation reaction, the compound E (100 μM dimethyl sulfoxide solution) was added to a phosphate buffer saline containing Aβ (aggregated in advance for 3 hours, 40 μM) and 25 μL of the above cell solution (final concentration of Aβ: 10 μM, final concentration of compound E: 1 μM). The mixture was irradiated with an LED (wavelength: 780 nm) at a distance of approximately 5 cm at 37° C. for 5 minutes. The cells were incubated in a 5% carbon dioxide atmosphere at 37° C. for 48 hours. The cell viability was measured by using the Cell Count Reagent SF (NACALAI TESQUE, INC., Kyoto, Japan) with WST-8 (2-(2-methoxy-4-nitrophenyl)-3-(4-nitrophenyl)-5-(2,4-disulfophenyl)-2H-tetrazolium).
b: LC50 (dark) indicates the toxicity of a compound itself, and LC50 (light) indicates the phototoxicity of a compound. The PC 12 cells were placed in dark or subjected to photocatalytic treatment under light irradiation (wavelength: 660 nm), and incubated at 37° C. for 5 minutes, and then in a 5% carbon dioxide atmosphere at 37° C. for 48 hours, for which the cell viability was analyzed (n=5, mean±SEM).
b: The PC 12 cells were treated together with a photocatalyst (1 μM) at 37° C. for 5 minutes in dark or under light irradiation (wavelength: 780 nm), and thereafter the cell viability was analyzed (n=3, mean±SEM).

Arctic Aβ1-38 = molecular target: T2, Arctic Aβ1-38 (Homo sapiens, UniProt P05067, E693G); type: biochemical; details: mouse brain lysate, light 780 nm
T2 construct: The peak intensity decreased by 36%/53%/74% for Arctic Aβ1-38; from tissue; host or cells: cerebral cortex and hippocampus of App knock-in mouse
Protocol: The brain excised from an eight-month-old App knock-in (App^NL-C-F/NL-C-F) mouse (Alzheimer's model mouse) was separated into the cerebral cortex, the hippocampus, and the residual brain tissues. The cerebral cortex and the hippocampus were homogenized together in a phosphate buffer saline, and the suspension was stored at −80° C. […] At an arbitrary point of time, an arbitrary aliquot of the reaction mixture was diluted with formic acid to a final concentration of 70%, concentrated, and redissolved in a 6 M aqueous solution of urea.

O=C(O)CCCCCN1CCCc2cc(/C=C/C3=[O+][B-](F)(C(F)(F)C(F)(F)F)OC(/C=C/c4cc5c6c(c4)CCCN6CCC5)=C3Br)ccc21 (centres unmarked) [Compound E]
percentage of oxygenation ratios [oxygenation ratio under mouse skin/oxygenation ratio outside of mouse skin]×100 (Aβ1-42 [1]): 65%
oxygenation reaction rate of furfuryl alcohol [2]: higher as the viscosity of the solvent was higher
oxygenation of N-benzoyl-Met [3]: accelerated as the viscosity of the solvent was higher
oxygenation of Aβ1-42 under light irradiation (Aβ1-42 [4]): oxygenation of the Aβ proceeded
CC50 (PC 12 cells): > 10 µM
decrease of peak intensity (conversion) of Arctic Aβ1-38 (Arctic Aβ1-38; 30 minutes): 36%
decrease of peak intensity (conversion) of Arctic Aβ1-38 (Arctic Aβ1-38; 60 minutes): 53%
decrease of peak intensity (conversion) of Arctic Aβ1-38 (Arctic Aβ1-38; 150 minutes): 74%
